# Measured values published in US20050043180A1, “Optically active herbicidal (r)-phenoxypropionic acid-n-methyl-n-2-fluorophenyl amides” (priority 2001, published 2005).
# How the values were obtained:
# [1] = test system: Rice (ORYSA, Oryza sativa L. cv. Dongjin); assay: Leaf treatment test, damage to rice; format: in vivo
# Description: (§1) Experimental Example 1: Leaf Treatment Test
# (§2) Seeds of rice, wheat, barley, corn, cotton, barnyard grass, common sorgum, large crabgrass and fall panicum were seeded at a pot with a surface area of 600 cm^2. When barnyard grass grown in a green house kept at 20-30° C. had three leaves, wettable powder prepared by mixing 1 part by weight of the active compound, 5 parts by weight of acetone and 1 part by weight of emulsifier and diluted with water was applied directly to the leaves in 2000 L per hectare. The concentration of the spray liquid was so chosen the particular amounts of the active compound desired. 14 days after the treatment, the degree of damage to the plants was rated in % damage in comparison to the development of untreated control.
# [2] = test system: Barnyard grass (ECHCG, Echinochloa crus-galli Beauv. var. caudata Kitagawa); assay: Leaf treatment test, herbicidal activity on barnyard grass; format: in vivo
# Description: as §1
# as §2, with “[…],” for “When barnyard grass grown in a green house kept at 20-30° C. had three leaves,”
# [3] = leaf treatment 2 g/ha, 14 days after treatment
# [4] = leaf treatment 4 g/ha, 14 days after treatment
# [5] = leaf treatment 8 g/ha, 14 days after treatment
# [6] = leaf treatment 16 g/ha, 14 days after treatment
# [7] = leaf treatment 32 g/ha, 14 days after treatment
# [8] = leaf treatment 63 g/ha, 14 days after treatment
# [9] = leaf treatment 125 g/ha, 14 days after treatment
# [10] = leaf treatment 250 g/ha, 14 days after treatment
# [11] = leaf treatment 500 g/ha, 14 days after treatment
# [12] = leaf treatment 1000 g/ha, 14 days after treatment
# [13] = leaf treatment 2000 g/ha, 14 days after treatment
# [14] = leaf treatment 4000 g/ha, rated 14 days after treatment vs untreated control, 0% no effect, 100% total destruction
SMILES,"% damage, Rice (4 leaves) [1, 3]","% damage, Rice (4 leaves) [1, 4]","% damage, Rice (4 leaves) [1, 5]","% damage, Rice (4 leaves) [1, 6]","% damage, Rice (4 leaves) [1, 7]","% damage, Rice (4 leaves) [1, 8]","% damage, Rice (4 leaves) [1, 9]","% damage, Rice (4 leaves) [1, 10]","% damage, Rice (4 leaves) [1, 11]","% damage, Rice (4 leaves) [1, 12]","% damage, Rice (4 leaves) [1, 13]","% damage, Rice (4 leaves) [1, 14]","% damage, Barnyard grass (4 leaves) [2, 3]","% damage, Barnyard grass (4 leaves) [2, 4]","% damage, Barnyard grass (4 leaves) [2, 5]","% damage, Barnyard grass (4 leaves) [2, 6]","% damage, Barnyard grass (4 leaves) [2, 7]","% damage, Barnyard grass (4 leaves) [2, 8]","% damage, Barnyard grass (4 leaves) [2, 9]","% damage, Barnyard grass (4 leaves) [2, 10]",further results
"CC(Oc1ccc(Oc2nc3ccc(Cl)cc3o2)cc1)C(=O)N(C)c1ccccc1F (racemic) [R,S-racemic compound]",0.0%,0.0%,0.0%,0.0%,0.0%,0.0%,0.0%,0.0%,0.0%,0.0%,0.0%,3.8%,0.0%,2.5%,45.0%,100%,100%,100%,100%,100%,"% damage, Barnyard grass (4 leaves) [2, 11]: 100%; % damage, Barnyard grass (4 leaves) [2, 12]: 100%; % damage, Barnyard grass (4 leaves) [2, 13]: 100%; % damage, Barnyard grass (4 leaves) [2, 14]: 100%"
"C[C@@H](Oc1ccc(Oc2nc3ccc(Cl)cc3o2)cc1)C(=O)N(C)c1ccccc1F [(R)-compound, (R)-2-[4-(6-chloro-2-benzoxazolyloxy)-phenoxy]propionic acid-N-(2-fluorophenyl)-N-methyl amide]",0.0%,0.0%,0.0%,0.0%,0.0%,0.0%,0.0%,0.0%,0.0%,2.5%,11.3%,22.5%,6.3%,62.5%,98.8%,100%,100%,100%,100%,100%,"% damage, Barnyard grass (4 leaves) [2, 11]: 100%; % damage, Barnyard grass (4 leaves) [2, 12]: 100%; % damage, Barnyard grass (4 leaves) [2, 13]: 100%; % damage, Barnyard grass (4 leaves) [2, 14]: 100%"
C[C@H](Oc1ccc(Oc2nc3ccc(Cl)cc3o2)cc1)C(=O)N(C)c1ccccc1F [(S)-compound],0.0%,0.0%,0.0%,0.0%,0.0%,0.0%,0.0%,0.0%,0.0%,0.0%,0.0%,0.0%,0.0%,0.0%,7.5%,65.0%,92.5%,100%,100%,100%,"% damage, Barnyard grass (4 leaves) [2, 11]: 100%; % damage, Barnyard grass (4 leaves) [2, 12]: 100%; % damage, Barnyard grass (4 leaves) [2, 13]: 100%; % damage, Barnyard grass (4 leaves) [2, 14]: 100%"
